# Reference: patent US20040185102A1, “Dosage forms comprising a CETP inhibitor and an HMG-CoA reductase inhibitor” (Pfizer Inc, priority 2002, published 2004)
# Experiments:
# aqueous solubility = assay type: physicochemical
# [1] = in vitro dissolution test using a microcentrifuge method; assay type: physicochemical; conditions: for AUC / Torcetrapib Concentration: PBS pH 6.5, 37° C.; for Torcetrapib Concentration: 1000 μg/mL if all drug dissolved
# Description: The spray-dried solid amorphous dispersion was evaluated in an in vitro dissolution test using a microcentrifuge method. In this test, 7.2 mg of the spray-dried solid amorphous dispersion was placed into a microcentrifuge tube. The tube was placed in a 37° C. sonicating bath, and 1.8 mL phosphate buffered saline (PBS) at pH 6.5 and 290 mOsm/kg was added, resulting in a torcetrapib concentration of 1000 μg/mL if all of the drug had dissolved. The sample was quickly mixed using a vortex mixer for about 60 seconds. The sample was centrifuged at 13,000 G at 37° C. for 1 minute. The resulting supernatant solution was then sampled and diluted 1:6 (by volume with methanol and then analyzed by high-performance liquid chromatography (HPLC). The contents of the tube was mixed on the vortex mixer and allowed to stand undisturbed at 37° C. until the next sample was taken. Samples were collected at 4, 10, 20, 40, 90, and 1200 minutes. The concentrations of drug obtained in these samples are shown in Table 1, which represent the average of duplicate tests.
# As a control, an in vitro dissolution test was performed using the procedures described above except that 1.8 mg of crystalline drug was used. […]
structure (smiles),measurement,setting,value
"CCOC(=O)N1c2ccc(C(F)(F)F)cc2[C@@H](N(Cc2cc(C(F)(F)F)cc(C(F)(F)F)c2)C(=O)OC)C[C@H]1CC [Crystalline Drug, [2R,4S]-4-[(3,5-bis-trifluoromethyl-benzyl)-methoxycarbonyl-amino]-2-ethyl-6-trifluoromethyl-3,4-dihydro-2H-quinoline-1-carboxylic acid ethyl ester]",solubility,aqueous solubility,< 0.04 µg/mL
same,AUC90 (area under the aqueous concentration versus time curve after 90 minutes),[1]; receptor solution PBS,<88 min-μg/mL
same,"Cmax,90 (maximum concentration of torcetrapib in solution during the first 90 minutes)",[1]; receptor solution PBS,<1000 ng/mL
same,AUC,[1]; time 0 min,0 min-μg/mL
same,Torcetrapib Concentration,[1]; time 0 min,0 µg/mL
same,AUC,[1]; time 4 min,<2 min-μg/mL
same,Torcetrapib Concentration,[1]; time 4 min,<1 µg/mL
same,AUC,[1]; time 10 min,<8 min-μg/mL
same,Torcetrapib Concentration,[1]; time 10 min,<1 µg/mL
same,AUC,[1]; time 20 min,<18 min-μg/mL
same,Torcetrapib Concentration,[1]; time 20 min,<1 µg/mL
same,AUC,[1]; time 40 min,<38 min-μg/mL
same,Torcetrapib Concentration,[1]; time 40 min,<1 µg/mL
same,AUC,[1]; time 90 min,<88 min-μg/mL
same,Torcetrapib Concentration,[1]; time 90 min,<1 µg/mL
same,AUC,[1]; time 1200 min,"<1,200 min-μg/mL"
same,Torcetrapib Concentration,[1]; time 1200 min,<1 µg/mL
